For assay [1], the target named is T1, human progesterone receptor A (Homo sapiens, UniProt P06401).
T1 construct: expressed in transfected cells; host or cells: SK-N-MC human neuroblastoma cells, stably transfected with pRChPR-A-neo and pMMTV-LUC
T1 sequence (P06401 1-769 isoform P06401-2): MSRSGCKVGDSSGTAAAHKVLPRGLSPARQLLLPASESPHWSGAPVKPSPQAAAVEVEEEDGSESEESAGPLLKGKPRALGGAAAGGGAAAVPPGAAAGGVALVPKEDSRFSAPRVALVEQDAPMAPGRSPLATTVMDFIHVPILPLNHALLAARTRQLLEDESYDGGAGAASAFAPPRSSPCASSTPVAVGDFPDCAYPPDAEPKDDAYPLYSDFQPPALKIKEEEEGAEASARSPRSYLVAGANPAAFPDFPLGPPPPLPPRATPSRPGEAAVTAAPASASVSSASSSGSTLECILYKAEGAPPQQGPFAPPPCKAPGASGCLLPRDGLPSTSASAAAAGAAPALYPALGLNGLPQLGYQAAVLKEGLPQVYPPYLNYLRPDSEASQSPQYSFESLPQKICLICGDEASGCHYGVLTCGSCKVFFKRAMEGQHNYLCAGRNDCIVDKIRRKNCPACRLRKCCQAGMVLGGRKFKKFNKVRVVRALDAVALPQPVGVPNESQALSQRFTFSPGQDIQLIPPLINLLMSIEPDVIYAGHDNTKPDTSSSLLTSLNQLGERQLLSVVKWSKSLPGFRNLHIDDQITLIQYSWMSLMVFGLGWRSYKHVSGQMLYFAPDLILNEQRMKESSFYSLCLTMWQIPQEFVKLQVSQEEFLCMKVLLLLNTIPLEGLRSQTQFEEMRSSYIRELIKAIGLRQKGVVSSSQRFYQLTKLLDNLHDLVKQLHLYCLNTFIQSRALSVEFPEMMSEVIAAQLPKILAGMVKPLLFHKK
Nature of the assay: Progesterone receptor transactivation test in stably transfected SK-N-MC cells (PR-A, MMTV-LUC reporter). Type of assay: cell-based. Conditions: 24 hours, in presence of 0.1 nmol/l promegestone, luciferase reporter, read-out: PR-A IC50 (antagonistic potency). How it is done: (§1) Progesterone Receptor-Antagonistic Action in Stable Transfectants of Human Neuroblastoma Cells (SK-N-MC Cells) with the Human Progesterone A or Progesterone B Receptor and an MN-LUC Reporter Construct
(§2) SK-N-MC cells (human neuroblastoma cells) which have been stably transfected with plasmids expressing the human progesterone receptor B (pRChPR-B-neo) or the human progesterone receptor A (pRChPR-A-neo) and a reporter construct (pMMTV-LUC) were incubated for 24 hours either in the absence (negative control) or in the presence of ascending amounts of the particular test compound (0.01 nmol/l, 0.1 nmol/l, 1 nmol/l, 10 nmol/l, 100 nmol/l and […]), in order to determine the agonistic efficacy. As a positive control of the reporter gene induction, the cells were treated with the synthetic gestagen promegestone (0.01 nmol/l, 0.1 nmol/l, 1 nmol/l, 10 nmol/l, 100 nmol/l and […]). To determine the antagonistic activity, the cells were treated with 0.1 nmol/l promegestone and additionally with ascending amounts of the particular test compound (0.01 nmol/l, 0.1 nmol/l, 1 nmol/l, 10 nmol/l, 100 nmol/l and […]). The activity of the reporter gene LUC (LUC=luciferase) was determined in the cell lysates and measured as RLU (relative light units). All measurements are reported as % efficacy and as […] and […] concentrations.

Assay [2] addresses T2, human progesterone receptor B (Homo sapiens, UniProt P06401).
T2 construct: expressed in transfected cells; host or cells: SK-N-MC human neuroblastoma cells, stably transfected with pRChPR-B-neo and pMMTV-LUC
T2 sequence (P06401 1-933): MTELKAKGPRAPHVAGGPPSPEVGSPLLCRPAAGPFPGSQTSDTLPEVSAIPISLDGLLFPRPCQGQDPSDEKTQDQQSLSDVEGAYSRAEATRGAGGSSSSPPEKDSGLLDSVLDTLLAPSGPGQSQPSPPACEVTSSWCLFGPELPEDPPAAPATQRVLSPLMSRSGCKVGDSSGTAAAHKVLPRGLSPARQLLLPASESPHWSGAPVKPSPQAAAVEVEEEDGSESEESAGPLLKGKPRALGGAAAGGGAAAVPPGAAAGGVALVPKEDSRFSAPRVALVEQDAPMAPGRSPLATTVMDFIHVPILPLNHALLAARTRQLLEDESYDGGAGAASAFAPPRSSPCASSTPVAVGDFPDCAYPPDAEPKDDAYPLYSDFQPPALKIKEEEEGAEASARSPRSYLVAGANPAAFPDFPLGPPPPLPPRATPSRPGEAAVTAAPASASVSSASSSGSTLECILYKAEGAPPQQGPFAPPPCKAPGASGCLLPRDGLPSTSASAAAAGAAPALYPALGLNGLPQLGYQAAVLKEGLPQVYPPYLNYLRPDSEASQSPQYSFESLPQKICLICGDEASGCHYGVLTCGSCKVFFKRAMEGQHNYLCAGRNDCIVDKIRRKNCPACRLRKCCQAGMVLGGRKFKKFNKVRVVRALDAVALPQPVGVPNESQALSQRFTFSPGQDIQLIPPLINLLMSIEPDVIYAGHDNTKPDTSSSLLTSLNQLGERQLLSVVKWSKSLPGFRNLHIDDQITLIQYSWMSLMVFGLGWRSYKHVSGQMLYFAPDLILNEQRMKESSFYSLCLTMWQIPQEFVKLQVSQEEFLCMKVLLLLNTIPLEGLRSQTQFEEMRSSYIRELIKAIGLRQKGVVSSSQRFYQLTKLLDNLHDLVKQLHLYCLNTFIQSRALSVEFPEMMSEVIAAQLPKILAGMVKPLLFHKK
Nature of the assay: Progesterone receptor transactivation test in stably transfected SK-N-MC cells (PR-B, MMTV-LUC reporter). Type of assay: cell-based. Conditions: 24 hours, in presence of 0.1 nmol/l promegestone, luciferase reporter, read-out: PR-B IC50 (antagonistic potency). As for the experimental part:
as §1, §2

`CC(OCCO)c1ccc(C2C[C@@]3(C)C(CC[C@@]3(O)C(F)(F)C(F)(F)F)C3CCC4=CC(=O)CCC4=C23)cc1` (mixture of isomers) [Example 1A, (8S,11R,13S,14S,17S)-17-hydroxy-11-{4-[(1RS)-1-(2-hydroxyethoxy)ethyl]phenyl}-13-methyl-17-pentafluoroethyl-1,2,6,7,8,11,12,13,14,15,16,17-dodecahydro-cyclopenta[a]phenanthren-3-one]: the IC50 (commonly the midpoint of a concentration-inhibition curve) in assay [1] came out at 0.12 nM; in assay [2] it was 0.36 nM.

In the case of `COC(C)c1ccc(C2C[C@@]3(C)C(CC[C@@]3(O)C(F)(F)C(F)(F)F)C3CCC4=CC(=O)CCC4=C23)cc1` (mixture of isomers) [Example 1B, (8S,11R,13S,14S,17S)-17-hydroxy-11-[4-((1RS)-1-methoxyethyl)phenyl]-13-methyl-17-pentafluoroethyl-1,2,6,7,8,11,12,13,14,15,16,17-dodecahydrocyclopenta[a]phenanthren-3-one], the IC50 in assay [1] and in assay [2] was 0.1 nM in each case.

Turning to `CC(OCC(=O)OC(C)(C)C)c1ccc([C@H]2C[C@@]3(C)C(CC[C@@]3(O)C(F)(F)C(F)(F)F)C3CCC4=CC(=O)CCC4=C32)cc1` (mixture of isomers) [Example 2, {(1RS)-1-[4-((8S,11R,13S,14S,17S)-17-hydroxy-13-methyl-3-oxo-17-pentafluoroethyl-2,3,6,7,8,11,12,13,14,15,16,17-dodecahydro-1H-cyclopenta[a]phenanthren-11-yl)phenyl]ethoxy}acetic acid tert-butyl ester], the IC50 amounted to 0.1 nM in assay [1] and 0.12 nM in assay [2].

Take `CC(OCC(=O)O)c1ccc([C@H]2C[C@@]3(C)C(CC[C@@]3(O)C(F)(F)C(F)(F)F)C3CCC4=CC(=O)CCC4=C32)cc1` (mixture of isomers) [Example 3, {(RS)-1-[4-((8S,11R,13S,14S,17S)-17-hydroxy-13-methyl-3-oxo-17-pentafluoroethyl-2,3,6,7,8,11,12,13,14,15,16,17-dodecahydro-1H-cyclopenta[a]phenanthren-11-yl)phenyl]ethoxy}acetic acid]: the IC50 came to 13 nM in assay [1] and 9.8 nM in assay [2].

Take `CC(OCC#N)c1ccc([C@H]2C[C@@]3(C)C(CC[C@@]3(O)C(F)(F)C(F)(F)F)C3CCC4=CC(=O)CCC4=C32)cc1` (mixture of isomers) [Example 5, {(RS)-1-[4-((8S,11R,13S,14S,17S)-17-hydroxy-13-methyl-3-oxo-17-pentafluoroethyl-2,3,6,7,8,11,12,13,14,15,16,17-dodecahydro-1H-cyclopenta[a]phenanthren-11-yl)phenyl]ethoxy}acetonitrile]: the IC50 in assay [1] and in assay [2] was 0.1 nM in each case.

In the case of `Cc1nc2cc(COC(C)c3ccc(C4C[C@@]5(C)C(CC[C@@]5(O)C(F)(F)C(F)(F)F)C5CCC6=CC(=O)CCC6=C45)cc3)ccc2s1` (mixture of isomers) [Example 8, (8S,11R,13S,14S,17S)-17-hydroxy-13-methyl-11-{4-[(RS)-1-(2-methylbenzothiazol-5-ylmethoxy)ethyl]phenyl}-17-pentafluoroethyl-1,2,6,7,8,11,12,13,14,15,16,17-dodecahydro-cyclopenta[a]phenanthren-3-one], the 50% inhibitory concentration (IC50) was determined as 0.06 nM in assay [1] and 0.1 nM in assay [2].

In the case of `CC(C)(C)OC(=O)COCCc1ccc([C@H]2C[C@@]3(C)[C@@H](CC[C@@]3(O)C(F)(F)C(F)(F)F)[C@@H]3CCC4=CC(=O)CCC4=C32)cc1` [Example 4, {2-[4-((8S,11R,13S,14S,17S)-17-hydroxy-13-methyl-3-oxo-17-pentafluoroethyl-2,3,6,7,8,11,12,13,14,15,16,17-dodecahydro-1H-cyclopenta[a]phenanthren-11-yl)-phenyl]ethoxy}acetic acid tert-butyl ester], the IC50 in assay [1] and in assay [2] was 0.1 nM throughout.

Consider `C[C@]12C[C@H](c3ccc(CCOCC(=O)O)cc3)C3=C4CCC(=O)C=C4CC[C@H]3[C@@H]1CC[C@@]2(O)C(F)(F)C(F)(F)F` [Example 6, {2-[4-((8S,11R,13S,14S,17S)-17-hydroxy-13-methyl-3-oxo-17-pentafluoroethyl-2,3,6,7,8,11,12,13,14,15,16,17-dodecahydro-1H-cyclopenta[a]phenanthren-11-yl)-phenyl]ethoxy}acetic acid], for which the IC50 in assay [1] was determined as 3 nM; in assay [2], 12 nM.

With `C[C@]12C[C@H](c3ccc(CCOCCO)cc3)C3=C4CCC(=O)C=C4CC[C@H]3[C@@H]1CC[C@@]2(O)C(F)(F)C(F)(F)F` [Example 7, (8S,11R,13S,14S,17S)-17-hydroxy-11-{4-[2-(2-hydroxyethoxy)ethyl]phenyl}-13-methyl-17-pentafluoroethyl-1,2,6,7,8,11,12,13,14,15,16,17-dodecahydro-cyclopenta[a]phenanthren-3-one], the IC50 in assay [1] and in assay [2] was 0.1 nM throughout.

The values above are taken from patent publication US9096640B2, “17-hydroxy-17-pentafluoroethyl-estra-4,9(10)-diene-11-methylene oxyalkylene aryl derivatives, process for preparation thereof, and use thereof for treatment of diseases” (Bayer Intellectual Property, priority 2009, dated 2015).
